Test results as given in patent US10039816B2, “Siderophore-based immunization against gram-negative bacteria” (Massachusetts Institute of Technology, priority 2014, dated 2018).

What was measured:
[1] = coupling reaction conditions
Lipocalin-2 (LCN2) = Lipocalin-2 (LCN2) (Homo sapiens, UniProt P80188); details: e.g., sub-nanomolar or low-nanomolar for ferric enterobactin; cited from earlier work
intestinal microbiota = experiment: Microbiota analysis (16S rDNA, Illumina MiSeq) of colon content of immunized mice; type: in vivo; details: for Lactobacillus spp. fraction of the microbiota: immunized, infected mice, day 4; for S. Typhimurium fraction of the intestinal microbes: mice infected with S. Typhimurium for 4 days
enterobactin (Ent) = experiment: ELISA for fecal anti-enterobactin IgA in immunized mice; type: in vivo, C57BL/6 mice; details: 14-21 days post-immunization, persisted up to 51 days post-immunization
Glu-Ent = type: in vivo; details: Peyer's patch cells, day 21 post-immunization; not in mock-immunized mice
salmochelin (Glu-Ent) = experiment: ELISA/dot blot for fecal anti-salmochelin IgA in immunized mice; type: in vivo, C57BL/6 mice; details: day 21 post-immunization
[2] = intranasal, first immunization and boost 14 days later; monitored up to 51 days; no sign of disease
S. Typhimurium = type: in vivo, Salmonella enterica serovar Typhimurium; details: for weight loss: C57BL/6 mice, 4 days after infection with 1×10^9 CFU S. Typhimurium, P=0.05
[3] = system: pro-inflammatory cytokines (IL-17, IL-22), Lcn2; type: in vivo; details: infected vs uninfected mice
Ent = type: in vivo; details: Peyer's patch cells, day 21 post-immunization; not in mock-immunized mice
[4] = responders, 96 h after infection

Chain of Lipocalin-2 (LCN2) (P80188 21-198, species assumed): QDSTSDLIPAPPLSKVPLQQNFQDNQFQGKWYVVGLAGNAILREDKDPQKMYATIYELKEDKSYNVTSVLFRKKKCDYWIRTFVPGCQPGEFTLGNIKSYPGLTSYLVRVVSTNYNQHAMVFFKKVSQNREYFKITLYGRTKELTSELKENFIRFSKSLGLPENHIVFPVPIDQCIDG

## O=C(N[C@H]1COC(=O)[C@@H](NC(=O)c2cccc(O)c2O)COC(=O)[C@@H](NC(=O)c2cccc(O)c2O)COC1=O)c1cccc(O)c1O [Enterobactin, enterobactin]
[1]
  hydrolysis of the trilactone ring in aqueous solution: slowly undergoes hydrolysis

## salmochelins
Lipocalin-2 (LCN2)
  capture by LCN2: cannot capture

## CTB-Ent
Intestinal microbiota
  Lactobacillus spp. fraction of the microbiota: ~60%
  S. Typhimurium fraction of the intestinal microbes: 7%
Intestinal microbiota; vs low level in mock-immunized mice
  level of Escherichia spp.: further reduced
Enterobactin (Ent)
  specific anti-Ent IgA antibodies in feces (ELISA): detected
Glu-Ent
  spots representing Glu-Ent-antibody complexes (ELISPOT): detected
Salmochelin (Glu-Ent)
  IgA binding to Glu-Ent (di-glucosylated form) in fecal samples: detected
[2]
  tolerability of the two immunizations: well tolerated
S. Typhimurium
  weight loss: ~6%
S. Typhimurium; in vivo
  bacterial burden of S. Typhimurium in the colon content: lower bacterial burden
S. Typhimurium; [4]
  Salmonella burden, Peyer's patches: lower Salmonella burden
  Salmonella burden, spleen: lower Salmonella burden
  Salmonella burden, terminal ileum: lower Salmonella burden
[3]
  expression of pro-inflammatory cytokines (IL-17, IL-22) and Lcn2 in response to infection: similarly upregulated
Ent
  spots representing Ent-antibody complexes (ELISPOT): detected

## Cholera toxin B subunit [CTB, reference compound]
Intestinal microbiota
  Lactobacillus spp. fraction of the microbiota: ~19%
  S. Typhimurium fraction of the intestinal microbes: ca. 32%
S. Typhimurium
  weight loss: ~10%
[3]
  expression of pro-inflammatory cytokines (IL-17, IL-22) and Lcn2 in response to infection: similarly upregulated

## O=C(N[C@H]1COC(=O)[C@@H](NC(=O)c2cccc([O-])c2[O-])COC(=O)[C@@H](NC(=O)c2cccc([O-])c2[O-])COC1=O)c1cccc([O-])c1[O-].[Fe+3] [ferric enterobactin]
Lipocalin-2 (LCN2)
  capture by LCN2: high affinity
